This data set deals with ATP-dependent translocase ABCB1 (Mus musculus, UniProt P21447). The data set can be described thus: TP_TRANSPORTER: increase in brain concentration in mdr1a(-/-) mouse. In kind it is functional, organism-based. The note with it: in vivo.
Sequence of ATP-dependent translocase ABCB1 (P21447 whole entry): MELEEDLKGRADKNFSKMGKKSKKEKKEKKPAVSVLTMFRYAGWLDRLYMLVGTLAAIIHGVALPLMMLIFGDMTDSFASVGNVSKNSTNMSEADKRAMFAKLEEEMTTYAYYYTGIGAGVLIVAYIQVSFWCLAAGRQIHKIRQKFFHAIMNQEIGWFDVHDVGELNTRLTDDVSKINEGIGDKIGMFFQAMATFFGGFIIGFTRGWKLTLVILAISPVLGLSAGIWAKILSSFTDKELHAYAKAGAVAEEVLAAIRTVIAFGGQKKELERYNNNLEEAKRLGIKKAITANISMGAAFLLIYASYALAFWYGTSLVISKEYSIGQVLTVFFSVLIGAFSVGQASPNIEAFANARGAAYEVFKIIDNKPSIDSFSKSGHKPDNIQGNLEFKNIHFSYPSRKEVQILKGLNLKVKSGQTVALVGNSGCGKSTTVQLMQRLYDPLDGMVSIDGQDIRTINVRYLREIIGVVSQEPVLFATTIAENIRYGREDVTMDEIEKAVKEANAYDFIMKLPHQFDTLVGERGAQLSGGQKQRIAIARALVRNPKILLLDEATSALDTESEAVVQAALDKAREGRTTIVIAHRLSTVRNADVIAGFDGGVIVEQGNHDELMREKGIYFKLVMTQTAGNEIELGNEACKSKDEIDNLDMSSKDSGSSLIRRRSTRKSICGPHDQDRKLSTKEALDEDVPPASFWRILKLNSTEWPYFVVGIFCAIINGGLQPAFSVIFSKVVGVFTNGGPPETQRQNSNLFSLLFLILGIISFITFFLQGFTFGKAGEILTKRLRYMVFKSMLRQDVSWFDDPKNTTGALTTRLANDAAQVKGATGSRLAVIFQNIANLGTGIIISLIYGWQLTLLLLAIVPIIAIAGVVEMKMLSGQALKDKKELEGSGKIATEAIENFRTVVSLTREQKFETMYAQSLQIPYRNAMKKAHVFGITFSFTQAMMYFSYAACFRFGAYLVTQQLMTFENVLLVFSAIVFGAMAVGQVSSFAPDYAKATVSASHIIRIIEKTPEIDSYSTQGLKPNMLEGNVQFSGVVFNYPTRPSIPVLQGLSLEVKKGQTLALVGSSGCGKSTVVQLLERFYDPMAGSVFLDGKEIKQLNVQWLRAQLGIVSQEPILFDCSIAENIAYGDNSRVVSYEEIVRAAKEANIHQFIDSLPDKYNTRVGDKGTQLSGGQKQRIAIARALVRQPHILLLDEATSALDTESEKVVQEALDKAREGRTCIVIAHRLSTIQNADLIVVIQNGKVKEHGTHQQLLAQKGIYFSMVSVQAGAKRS

In the case of `CCC(C)n1ncn(-c2ccc(N3CCN(c4ccc(OCC5COC(Cn6cncn6)(c6ccc(Cl)cc6Cl)O5)cc4)CC3)cc2)c1=O` (stereo unspecified) [ITRACONAZOLE], the Activity entry is “substrate [+]”.
